Data from patent US11786534B2 (TAIHO PHARMACEUTICAL CO., LTD., priority 2019, dated 2023).
Like-named read-outs stand apart in the source and are kept apart here.

Columns and labels:
Ba/F3-EGFR (WT) = Ba/F3-EGFR (WT) (Homo sapiens, UniProt P00533); test: Growth inhibition of cell line expressing wild-type EGFR; type: cell-based, mouse; details: read-out: BaF3_EGFR (WT) IC50 value
Description: Test for inhibitory activity against the growth of cell lines expressing wild-type and mutated EGFRs (in vitro)
(1) Mouse cell line Ba/F3-EGFR (d746-750/T790M/C797S) transfected with and stably expressing EGFR (d746-750/T790M/C797S), mouse cell Ba/F3-EGFR (L858R/T790M/C797S) transfected with and stably expressing EGFR (L858R/T790M/C797S), and mouse cell line Ba/F3-EGFR (WT) transfected with and stably expressing wild-type EGFR were each suspended in RPMI-1640 cell culture medium (RPMI-1640, 10% FBS, 100 unit/ml penicillin, 0.1 mg/ml streptomycin). In the case of the mouse cell line Ba/F3-EGFR (WT), RPMI-1640 cell culture medium containing EGF at a final concentration of 50 ng/ml was used to suspend this cell line. It should be noted that the mouse cell line Ba/F3-EGFR (d746-750/T790M/C797S) transfected with and stably expressing EGFR (d746-750/T790M/C797S), the mouse cell line Ba/F3-EGFR (L858R/T790M/C797S) transfected with and stably expressing EGFR (L858R/T790M/C797S) and the mouse cell line Ba/F3-EGFR (WT) transfected with and stably expressing wild-type EGFR were prepared by using nucleotide sequences encoding the proteins of SEQ ID NOs: 1 and 2 in accordance with Test Example 1 in WO2018/079310, These cell suspensions were seeded in wells of 96-well flat -bottomed plates. The compounds of the present invention were dissolved in DMSO, and serial dilutions of these test compounds were prepared with DMSO (1000-fold of the final concentration). Each test compound solution in DMSO or DMSO alone was diluted with RPMI-1640 cell culture medium for each cell line, and this dilution was added to wells of the cell culture plate such that the final concentration of DMSO was 0.1%, followed by culture at 37° C. for 3 days in a 5% carbon dioxide gas-containing incubator. Before and after addition of each test compound solution in DMSO, the number of cells was counted using the CellTiter-Glo® system (Promega) on the basis of the protocol recommended by Promega.
In each cell line, the rate of cell growth inhibition was calculated according to the equation shown below in wells to which each test compound was added at different concentrations. Moreover, the inhibition rate at each concentration was plotted for each test compound, and the concentration of each test compound required to give 50% cell survival rate, i.e., IC50 (nM) was determined by curve fitting software XLfit (IDBS).
Cell survival rate (%)=T/C×100
T: emission intensity in a well cultured for 3 days after addition of a test compound solution
C: emission intensity in a well cultured for 3 days after addition of DMSO
In accordance with the same procedures as shown in Test Example 2, the compounds of the present invention were tested for their inhibitory activity against the growth of the cell hoes expressing wild-type and mutated EGFRs.

[1] = target: T1, human EGFR (d746-750/T790M/C797S) (Homo sapiens, UniProt P00533, C797S/DEL746-750/T790M); test: Inhibitory activity against EGFR (d746-750/T790M/C797S) kinase; type: biochemical; details: Test Example 1, Table 2; ATP 6 μM, 25° C., 120 minutes
T1 construct: made in house; host or cells: Sf9 insect cells, baculovirus
T1 sequence (P00533 with tags, fused parts or gaps DEL746-750/T790M/C797S): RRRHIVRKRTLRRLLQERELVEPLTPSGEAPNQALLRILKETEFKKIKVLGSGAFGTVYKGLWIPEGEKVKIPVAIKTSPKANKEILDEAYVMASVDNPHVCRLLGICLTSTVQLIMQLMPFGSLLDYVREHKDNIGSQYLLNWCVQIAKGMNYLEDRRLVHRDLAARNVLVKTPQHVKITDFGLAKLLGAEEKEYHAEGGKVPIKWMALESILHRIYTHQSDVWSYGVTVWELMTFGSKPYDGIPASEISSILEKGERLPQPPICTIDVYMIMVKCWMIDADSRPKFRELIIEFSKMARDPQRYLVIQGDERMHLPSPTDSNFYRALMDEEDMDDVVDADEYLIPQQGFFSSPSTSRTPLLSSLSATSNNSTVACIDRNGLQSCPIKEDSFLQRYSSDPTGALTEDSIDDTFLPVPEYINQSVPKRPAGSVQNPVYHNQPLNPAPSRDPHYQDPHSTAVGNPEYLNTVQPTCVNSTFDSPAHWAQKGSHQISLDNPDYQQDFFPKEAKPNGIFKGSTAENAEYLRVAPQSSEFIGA
Procedure, shortened: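 GST-fused cytoplasmic domain of human EGFR d746-750/T790M/C797S (Sf9-expressed) was incubated with 250 nM biotinylated peptide, 6 μM ATP, 10 mM MgCl2 and 10 mM MnCl2 (2.5% DMSO) for 120 min at 25 °C. After an EDTA stop, phosphotyrosine was detected by Eu-PT66/SureLight APC-SA TR-FRET (665/620 nm, excitation 337 nm). Background wells received EDTA before enzyme.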

[2] = Test Example 2, Table 7, culture 3 days, EGF 50 ng/ml, CellTiter-Glo
[3] = Test Example 4, Table 13, same procedures as Test Example 2

Chain of Ba/F3-EGFR (WT) (P00533 whole entry, stated change not applied): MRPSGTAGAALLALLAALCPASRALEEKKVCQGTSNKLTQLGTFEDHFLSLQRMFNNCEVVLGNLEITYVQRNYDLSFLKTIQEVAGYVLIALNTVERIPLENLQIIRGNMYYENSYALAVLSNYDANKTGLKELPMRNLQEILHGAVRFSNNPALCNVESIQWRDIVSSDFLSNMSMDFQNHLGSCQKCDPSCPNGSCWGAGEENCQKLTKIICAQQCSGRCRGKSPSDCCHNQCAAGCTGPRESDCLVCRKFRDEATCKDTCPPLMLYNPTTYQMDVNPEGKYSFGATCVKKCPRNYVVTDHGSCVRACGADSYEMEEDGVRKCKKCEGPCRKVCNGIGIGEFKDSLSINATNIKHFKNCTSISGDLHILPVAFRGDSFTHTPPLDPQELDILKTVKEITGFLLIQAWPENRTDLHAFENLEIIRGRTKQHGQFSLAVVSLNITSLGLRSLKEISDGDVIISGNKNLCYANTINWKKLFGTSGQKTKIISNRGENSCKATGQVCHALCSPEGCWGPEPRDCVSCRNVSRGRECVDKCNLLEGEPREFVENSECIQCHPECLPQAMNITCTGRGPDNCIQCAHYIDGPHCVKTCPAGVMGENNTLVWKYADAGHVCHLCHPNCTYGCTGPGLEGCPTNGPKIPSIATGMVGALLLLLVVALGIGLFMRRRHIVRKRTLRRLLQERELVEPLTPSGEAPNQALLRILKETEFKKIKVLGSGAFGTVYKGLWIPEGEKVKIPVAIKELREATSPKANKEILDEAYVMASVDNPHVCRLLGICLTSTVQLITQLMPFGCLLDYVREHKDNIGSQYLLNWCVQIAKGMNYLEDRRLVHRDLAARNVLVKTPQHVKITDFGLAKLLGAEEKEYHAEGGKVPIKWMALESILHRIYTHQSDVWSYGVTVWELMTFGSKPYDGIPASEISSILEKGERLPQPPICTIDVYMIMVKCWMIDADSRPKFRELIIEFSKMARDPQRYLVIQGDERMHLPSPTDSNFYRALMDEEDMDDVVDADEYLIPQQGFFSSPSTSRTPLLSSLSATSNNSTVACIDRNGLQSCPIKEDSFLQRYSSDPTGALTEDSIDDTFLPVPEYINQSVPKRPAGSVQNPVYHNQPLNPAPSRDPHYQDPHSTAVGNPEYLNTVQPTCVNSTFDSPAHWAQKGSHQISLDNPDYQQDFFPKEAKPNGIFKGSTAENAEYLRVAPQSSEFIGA

Row | GI50 (Ba/F3-EGFR (WT); [2]) [nM] | IC50 [1] [nM] | GI50 (Ba/F3-EGFR (WT); [3]) [nM] | SMILES
1 | 2460 | 142 |  | C=CC(=O)N1CC[C@@H](n2cc(-c3cnc4ccccc4c3)c3c(N)ncnc32)C1 [Comparative Example A, (R)-1-(3(4-Amino-5-(quinolin-3-yl)-7H-pyrrolo[2,3-d]pyrimidin-7-yl)pyrrolidin-1-yl) -prop-2-en-1-one, reference compound]
2 | 1050 | 26 |  | C#Cc1c(-c2cnc3ccccc3c2)c2c(N)ncnc2n1[C@@H]1CCN(C(=O)C=C)C1 [Comparative Example B, (R)-1-(3-(4-Amino-6-ethynyl-5-(quinolin-3-yl)-7H-pyrrolo[2,3-d]pyrimidin-7-yl) -pyrrolidin-1-yl)-prop-2-en-1-one, reference compound]
3 |  | < 0.3 | 3490 | C#Cc1c(-c2cnc3ccccc3c2)c2c(N)ncnc2n1C12CCC(NC(=O)c3ccccc3)(CC1)C2 [Example 1, N-(4-(4-Amino-6-ethynyl-5-(quinolin-3-yl)-7H-pyrrolo[2,3-d]pyrimidin-7-yl)bicyclo-[2.2.1]heptan-1-yl)benzamide]
4 | 2650 | < 0.3 |  | C#Cc1c(-c2cnc3ccccc3c2)c2c(N)ncnc2n1C12CCC(NC(=O)c3cncnc3)(CC1)C2 [Example 2, N-(4-(4-Amino-6-ethynyl-5-(quinolin-3-yl)-7H-pyrrolo[2,3-d]pyrimidin-7-yl)bicyclo-[2.2.1]heptan-1-yl)pyrimidine-5-carboxamide]
5 | 3330 | < 0.3 |  | C#Cc1c(-c2cnc3ccccc3c2)c2c(N)ncnc2n1C12CCC(NC(=O)c3ccnnc3)(CC1)C2 [Example 3, N-(4-(4-Amino-6-ethynyl-5-(quinolin-3-yl)-7H-pyrrolo[2,3-d]pyrimidin-7-yl)bicyclo-[2.2.1]heptan-1-yl)pyridazine-4-carboxamide]
6 |  | < 0.3 | > 2000 | C#Cc1c(-c2cnc3ccccc3c2)c2c(N)ncnc2n1C12CCC(N3CCOCC3)(CC1)C2 [Example 9, 6-Ethynyl-7-(4-morpholinobicyclo[2.2.1]heptan-1-yl)-5-(quinolin-3-yl)-7H-pyrrolo[2,3-d]pyrimidine-4-amine]
7 | 3600 | < 0.3 |  | C#Cc1c(-c2cnc3ccccc3c2)c2c(N)ncnc2n1C12CCC(CNC(=O)c3ccnn3C)(CC1)C2 [Example 13, N-((4-(4-Amino-6-ethynyl-5-(quinolin-3-yl)-7H-pyrrolo[2,3-d]pyrimidin-7-yl)bicyclo-[2.2.1]heptan-1-yl)methyl)-1-methyl-1H-pyrazole-5-carboxamide]
8 | 3500 | < 0.3 |  | C#Cc1c(-c2cnc3ccccc3c2)c2c(N)ncnc2n1C12CCC(CNC(=O)c3cnc(C)cn3)(CC1)C2 [Example 14, N-((4-(4-Amino-6-ethynyl-5-(quinolin-3-yl)-7H-pyrrolo[2,3-d]pyrimidin-7-yl)bicyclo-[2.2.1]heptan-1-yl)methyl)-5-methylpyrazine-2-carboxamide]
9 |  | < 0.3 | 1920 | C#Cc1c(-c2cnc3ccccc3c2)c2c(N)ncnc2n1C12CCC(NC(=O)c3ccc4ncnn4c3)(CC1)C2 [Example 16, N-(4-(4-Amino-6-ethynyl-5-(quinolin-3-yl)-7H-pyrrolo[2,3-d]pyrimidin-7-yl)bicyclo-[2.2.1]heptan-1-yl)-[1.2.4]triazolo[1,5-a]pyrimidin-6-carboxamide]
10 |  | < 0.3 | 2480 | C#Cc1c(-c2cnc3ccccc3c2)c2c(N)ncnc2n1C12CCC(NC(=O)c3cnns3)(CC1)C2 [Example 18, N-(4-(4-Amino-6-ethynyl-5-(quinolin-3-yl)-7H-pyrrolo[2,3-d]pyrimidin-7-yl)bicyclo-[2.2.1]heptan-1-yl)-1,2,3-thiadiazole-5-carboxamide]
11 |  | < 0.3 | 2650 | C#Cc1c(-c2cnc3ccccc3c2)c2c(N)ncnc2n1C12CCC(NC(=O)c3ccnn3C3CC3)(CC1)C2 [Example 20, N-(4-(4-Amino-6-ethynyl-5-(quinolin-3-yl)-7H-pyrrolo[2,3-d]pyrimidin-7-yl)bicyclo-[2.2.1]heptan-1-yl)-1-cyclopropyl-1H-pyrazole-5-carboxamide]
12 |  | < 0.3 | 3190 | C#Cc1c(-c2cnc3ccccc3c2)c2c(N)ncnc2n1C12CCC(NC(=O)c3nccn3C)(CC1)C2 [Example 23, N-(4-(4-Amino-6-ethynyl-5-(quinolin-3-yl)-7H-pyrrolo[2,3-d]pyrimidin-7-yl)bicyclo-[2.2.1]heptan-1-yl)-1-methyl-1H-imidazole-2-carboxamide]
13 | 3790 | < 0.3 |  | C#Cc1c(-c2cnc3ccccc3c2)c2c(N)ncnc2n1C12CCC(NC(=O)c3ccnn3C)(CC1)C2 [Example 24, N-(4-(4-Amino-6-ethynyl-5-(quinolin-3-yl)-7H-pyrrolo[2,3-d]pyrimidin-7-yl)bicyclo-[2.2.1]heptan-1-yl)-1-methyl-1H-pyrazole-5-carboxamide]
14 |  | < 0.3 | > 2000 | C#Cc1c(-c2cnc3ccccc3c2)c2c(N)ncnc2n1C12CCC(NC(=O)C(F)F)(CC1)C2 [Example 27, N-(4-(4-Amino-6-ethynyl-5-(quinolin-3-yl)-7H-pyrrolo[2,3-d]pyrimidin-7-yl)bicyclo-[2.2.1]heptan-1-yl)-2,2-difluoroacetamide]
15 |  | < 0.3 | 2960 | C#Cc1c(-c2cnc3ccccc3c2)c2c(N)ncnc2n1C12CCC(NC(=O)c3cncc(F)c3)(CC1)C2 [Example 35, N-(4-(4-Amino-6-ethynyl-5-(quinolin-3-yl)-7H-pyrrolo[2,3-d]pyrimidin-7-yl)-bicyclo-[2.2.1]heptan-1-yl)-5-fluoronicotinamide]
16 |  | < 0.3 | > 2000 | C#Cc1c(-c2cnc3ccccc3c2)c2c(N)ncnc2n1C12CCC(NC(=O)c3noc(C)n3)(CC1)C2 [Example 36, N-(4-(4-Amino-6-ethynyl-5-(quinolin-3-yl)-7H-pyrrolo[2,3-d]pyrimidin-7-yl)-bicyclo-[2.2.1]heptan-1-yl)-5-methyl-1,2,4-oxadiazole-3-carboxamide]
17 | 2970 | < 0.3 |  | C#Cc1c(-c2cnc3ccccc3c2)c2c(N)ncnc2n1C12CCC(NC(=O)c3cnc(C)cn3)(CC1)C2 [Example 37, N-(4-(4-Amino-6-ethynyl-5-(quinolin-3-yl)-7H-pyrrolo[2,3-d]pyrimidin-7-yl)-bicyclo-[2.2.1]heptan-1-yl)-5-methylpyrazine-2-carboxamide]
18 |  | < 0.3 | 2360 | C#Cc1c(-c2cnc3ccccc3c2)c2c(N)ncnc2n1C12CCC(NC(C)=O)(CC1)C2 [Example 39, N-(4-(4-Amino-6-ethynyl-5-(quinolin-3-yl)-7H-pyrrolo[2,3-d]pyrimidin-7-yl)-bicyclo-[2.2.1]heptan-1-yl)acetamide]
19 |  | < 0.3 | 3240 | C#Cc1c(-c2cnc3ccccc3c2)c2c(N)ncnc2n1C12CCC(NC(=O)c3ccco3)(CC1)C2 [Example 41]
20 | 3290 | < 0.3 |  | C#Cc1c(-c2cnc3ccccc3c2)c2c(N)ncnc2n1C12CCC(NC(=O)c3ccncc3)(CC1)C2 [Example 43]
21 |  | < 0.3 | 2260 | C#Cc1c(-c2cnc3ccccc3c2)c2c(N)ncnc2n1C12CCC(NC(=O)c3ccno3)(CC1)C2 [Example 44]
22 | 3400 | < 0.3 |  | C#Cc1c(-c2cnc3ccccc3c2)c2c(N)ncnc2n1C12CCC(NC(=O)c3cccnc3)(CC1)C2 [Example 45]
23 | 2410 | < 0.3 |  | C#Cc1c(-c2cnc3ccccc3c2)c2c(N)ncnc2n1C12CCC(NC(=O)c3ncco3)(CC1)C2 [Example 46]
